#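 Test compounds were applied to cells in 96-well plates for 48 hours at 5 doses. TGI: total growth inhibition.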
# Experiments:
# Experiment in all cases: growth of human tumour cells (NCI), 48 h
# HT29 colon = test system: HT29 colon
# ACHN renal = test system: ACHN renal
# NCI-H460 lung = test system: NCI-H460 lung
# SK-MEL-28 melanoma = test system: SK-MEL-28 melanoma
# UACC-257 melanoma = test system: UACC-257 melanoma
# UO-31 renal = test system: UO-31 renal
# KM12 colon = test system: KM12 colon
# SF-539 CNS = test system: SF-539 CNS
# HCT-116 colon = test system: HCT-116 colon
# MALME-3M melanoma = test system: MALME-3M melanoma
# CAKI-1 renal = test system: CAKI-1 renal
# SK-MEL-5 melanoma = test system: SK-MEL-5 melanoma
# A549 NSCLC = test system: A549 NSCLC
# LOX IMVI melanoma = test system: LOX IMVI melanoma
# M14 melanoma = test system: M14 melanoma
# HCC-2998 colon = test system: HCC-2998 colon
# U251 CNS = test system: U251 CNS
# PC-3 prostate = test system: PC-3 prostate
# HOP-62 NSCLC = test system: HOP-62 NSCLC
# MCF7 breast = test system: MCF7 breast
# HS 578T breast = test system: HS 578T breast
# IGROV1 ovarian = test system: IGROV1 ovarian
# SNB-19 CNS = test system: SNB-19 CNS
# NCI-H23 lung = test system: NCI-H23 lung
# SK-MEL-2 melanoma = test system: SK-MEL-2 melanoma
# MDA-MB-435 = test system: MDA-MB-435
# RPMI-8226 leukemia = test system: RPMI-8226 leukemia
# TK-10 renal = test system: TK-10 renal
# SNB-75 CNS = test system: SNB-75 CNS
# CCRF-CEM leukemia = test system: CCRF-CEM leukemia
# RXF 393 renal = test system: RXF 393 renal
# T-47D breast = test system: T-47D breast
# COLO 205 colon = test system: COLO 205 colon
# DU-145 prostate = test system: DU-145 prostate
# HCT-15 colon = test system: HCT-15 colon
# OVCAR-5 ovarian = test system: OVCAR-5 ovarian
# BT-549 breast = test system: BT-549 breast
# OVCAR-3 ovarian = test system: OVCAR-3 ovarian
# MDA-N = test system: MDA-N
# SF-268 CNS = test system: SF-268 CNS
# SF-295 CNS = test system: SF-295 CNS
# UACC-62 melanoma = test system: UACC-62 melanoma
# OVCAR-8 ovarian = test system: OVCAR-8 ovarian
# HL-60(TB) leukemia = test system: HL-60(TB) leukemia
# OVCAR-4 ovarian = test system: OVCAR-4 ovarian
# SK-OV-3 ovarian = test system: SK-OV-3 ovarian
# MDA-MB-231 breast = test system: MDA-MB-231 breast
# A498 renal = test system: A498 renal
# K-562 leukemia = test system: K-562 leukemia
# HOP-92 NSCLC = test system: HOP-92 NSCLC
# SW-620 colon = test system: SW-620 colon
# NCI-H226 lung = test system: NCI-H226 lung
# SR leukemia = test system: SR leukemia
# 786-0 renal = test system: 786-0 renal
# NCI-H522 lung = test system: NCI-H522 lung
# MOLT-4 leukemia = test system: MOLT-4 leukemia
# NCI/ADR-RES ovarian = test system: NCI/ADR-RES ovarian
# EKVX NSCLC = test system: EKVX NSCLC
# SN12C renal = test system: SN12C renal
compound,measurement,setting,value
CC1(c2ccc(Cl)cc2)NC(=NCCO)c2ccccc21 (centres undefined),TGI,HT29 colon,> 62.8 µM
same,TGI,ACHN renal,> 100 µM
same,TGI,NCI-H460 lung,> 84.5 µM
same,TGI,SK-MEL-28 melanoma,30 µM
same,TGI,UACC-257 melanoma,33.5 µM
same,TGI,UO-31 renal,> 100 µM
same,TGI,KM12 colon,> 57.3 µM
same,TGI,SF-539 CNS,27.3 µM
same,TGI,HCT-116 colon,> 100 µM
same,TGI,MALME-3M melanoma,35 µM
same,TGI,CAKI-1 renal,> 100 µM
same,TGI,SK-MEL-5 melanoma,31 µM
same,TGI,A549 NSCLC,> 100 µM
same,TGI,LOX IMVI melanoma,32.8 µM
same,TGI,M14 melanoma,25.5 µM
same,TGI,HCC-2998 colon,24.8 µM
same,TGI,U251 CNS,> 100 µM
same,TGI,PC-3 prostate,> 100 µM
same,TGI,HOP-62 NSCLC,> 100 µM
same,TGI,MCF7 breast,53.1 µM
same,TGI,HS 578T breast,> 95.1 µM
same,TGI,IGROV1 ovarian,> 100 µM
same,TGI,SNB-19 CNS,> 100 µM
same,TGI,NCI-H23 lung,> 94.5 µM
same,TGI,SK-MEL-2 melanoma,37.7 µM
same,TGI,MDA-MB-435,32.6 µM
same,TGI,RPMI-8226 leukemia,19.5 µM
same,TGI,TK-10 renal,> 100 µM
same,TGI,SNB-75 CNS,> 85.1 µM
same,TGI,CCRF-CEM leukemia,24.2 µM
same,TGI,RXF 393 renal,57.9 µM
same,TGI,T-47D breast,> 48 µM
same,TGI,COLO 205 colon,28.8 µM
same,TGI,DU-145 prostate,> 70.8 µM
same,TGI,HCT-15 colon,> 100 µM
same,TGI,OVCAR-5 ovarian,> 100 µM
same,TGI,BT-549 breast,99.7 µM
same,TGI,OVCAR-3 ovarian,> 100 µM
same,TGI,MDA-N,26.9 µM
same,TGI,SF-268 CNS,> 100 µM
same,TGI,SF-295 CNS,> 81.1 µM
same,TGI,UACC-62 melanoma,32.1 µM
same,TGI,OVCAR-8 ovarian,> 100 µM
same,TGI,HL-60(TB) leukemia,> 35.5 µM
same,TGI,OVCAR-4 ovarian,> 100 µM
same,TGI,SK-OV-3 ovarian,> 100 µM
same,TGI,MDA-MB-231 breast,> 100 µM
same,TGI,A498 renal,52.6 µM
same,TGI,K-562 leukemia,33.4 µM
same,TGI,HOP-92 NSCLC,77.9 µM
same,TGI,SW-620 colon,> 100 µM
same,TGI,NCI-H226 lung,> 100 µM
same,TGI,SR leukemia,46 µM
same,TGI,786-0 renal,30.4 µM
same,TGI,NCI-H522 lung,> 100 µM
same,TGI,MOLT-4 leukemia,37.8 µM
same,TGI,NCI/ADR-RES ovarian,> 100 µM
same,TGI,EKVX NSCLC,> 100 µM
same,TGI,SN12C renal,> 100 µM
